In patent US20080253996A1, “Use of Sdf-1 for the Treatment and/or Prevention of Neurological Diseases” (LABORATORIES SERONO SA, priority 2005, published 2008):

How the values were obtained:
sciatic nerve crush mice = experiment: Neuropathy induced by sciatic nerve crush, electrophysiological recording (CMAP); type: in vivo, mouse; conditions: for increase in the CMAP amplitude as compared to untreated mice: SDF-1α 30 μg/kg or μ/kg, IL-6 30 μ/kg s.c., significant at 15 dpl and 22dpl
Protocol: […] 8 week-old females C57bl/6 RJ mice (Elevage Janvier, Le Genest-St-Isle, France) were used. They were divided into 6 groups (n=6): • (a) nerve crush/Vehicle (Saline/0.02% BSA); • (b) nerve crush/SDF-1α (3 μg/kg); • (c) nerve crush/SDF-1α (10 μg/kg); • (d) nerve crush/SDF-1α (30 μg/kg); • (e) nerve crush/SDF-1α (100 μg/kg); • (f) nerve crush/IL-6 (30 μg/kg).
The animals were anaesthetized by inhalation of 3% Isoflurane (Baxter). The right sciatic nerve was surgically exposed at mid thigh level and crushed at 5 mm proximal to the trifurcation of the sciatic nerve. The nerve was crushed twice for 30s with a haemostatic forceps (width 1.5 mm; Koenig; Strasbourg; France) with a 90-degree rotation between each crush.
Electromyographical (EMG) testing was performed once before the surgery day and each week during 3 weeks following the operation.
The day of nerve crush surgery was considered as dpl 0 (dpl=day post lesion). No test was performed during the 4 days following the crush.
From the day of nerve injury to the end of the study, SDF-1α, IL-6 or Vehicle were administered daily by subcutaneous injections (s.c.) route, 5 days per week.
Electrophysiological recordings were performed using a Neuromatic 2000M electromyograph (EMG) (Dantec, Les Ulis, France). Mice were anaesthetized by inhalation of 3% Isofluran® (Baxter). The normal body temperature was maintained using a heated operating table (Minerve, Esternay, France).
Compound muscle action potential (CMAP) was measured in the gastrocnemius muscle after a single 0.2 ms stimulation of the sciatic nerve at a supramaximal intensity (12.8 mA). The amplitude (mV) and the latency (ms) of the action potential were measured on the operated leg. The measures was also registered on the contralateral (uncrushed) leg of Vehicle treated animals (Baseline). The amplitude is indicative of the number of active motor units, while the distal latency indirectly reflects motor nerve conduction and neuromuscular transmission velocities, which depends in part on the degree of myelination.
Global analysis of the data was performed using one-way ANOVA. Dunnett's test was used further, and data were compared to the “vehicle” control. The level of significance was set at a: p<0.001; b or **: p<0.01; c or *: p<0.05; d: p<0.1. The results were expressed as mean ±standard error of the mean (s.e.m.).
The sciatic nerve crush model described in Example 4 above was carried out to test SDF-1α variant as defined in SEQ ID NO: 4 and the mice were divided into the following 2 groups (n=6):
The SDF-1α variant used in this example and encoded by SEQ ID NO: 4 was expressed with an additional N terminal Methionine. The CMAP duration (time needed for a depolarization and a repolarization session) was also recorded.
The sciatic nerve crush model described in Example 4 above was carried out to test Met-SDF-1α (as defined in SEQ ID NO: 7) and the mice were divided into the following 2 groups (n=6):
(b) nerve crush/Met-SDF-1α variant at 100, 30, and 10 μg/kg s.c.

STZ-rats = experiment: STZ diabetic neuropathy, morphometric analysis of sciatic nerve and skin biopsy; type: in vivo, rat; conditions: day 40 post STZ; for density of intra-epidermal nerve fibers: vs vehicle
Protocol: Morphometric analysis was performed at the end of the study. The animals were anesthetized by IP injection of 60 mg/kg Imalgéne 500®. A 5 mm-segment of sciatic nerve was excised for histology. The tissue was fixed overnight with 4% glutaraldehyde (Sigma, L'Isle d'Abeau-Chesnes, France) solution in phosphate buffer solution (pH 7.4) and maintained in 30% sucrose at +4° C. until use. The nerve sample was fixed in 2% osmium tetroxide (Sigma) solution in phosphate buffer solution for 2 h, dehydrated in serial alcohol solution, and embedded in Epon. Embedded tissues were then placed at +70° C. during 3 days of polymerization. Transverse sections of 1.5 μm thickness were obtained using a microtome. They were stained with a 1% toluidine blue solution (Sigma) for 2 min, dehydrated and mounted in Eukitt.
Analysis was performed on the entire surface of the nerve section using a semi-automated digital image analysis software (Biocom, France). Once extraneous objects had been eliminated, the software reported the total number of myelinated fibers. The number of degenerated fibers was then counted manually by an operator. Myelinated fibers without axons, redundant myelin and fibers showing sheaths with too large thickness in respect to their axonal diameter were considered as fibers undergoing processes of degeneration. The number of non-degenerated fibers was obtained by subtraction of the number of degenerated fibers.
Morphological analysis was performed only on fibers considered as non-degenerated. For each fiber, the axonal and myelin sizes were reported in surface area (μm^2). These two parameters were used to calculate the equivalent area of g-ratio (axonal diameter/fiber diameter) of each fiber (i.e., [A/(A+M)]^0.5, A=axonal area, M=myelin area), indicative of the relative myelin sheath thickness.
In addition, a 5-10 mm diameter area of skin was punch-biopsied from the hindpaw. Skin samples were immediately fixed overnight in paraformaldehyde at 4° C., incubated (overnight) in 30% sucrose in 0.1 M PBS for cryoprotection, embedded in OCT and frozen at −80° C. until cryocut.
50 μm-thick cryosections were then cut vertical to the skin surface with a cryostat. Free-floating sections were incubated for 7 days in a bath of rabbit anti-protein gene product 9.5 (1:10000; Ultraclone, Isle of Man, UK) at 4° C. The sections were then processed to reveal immunoreactivity according to the ABC peroxidase method. Briefly, they were incubated in for 1 h with biotinylated […] antibody (1:200), then 30 min in the avidin biotinylated complex at room temperature. Peroxidase activity was visualized using DAB system. Sections were then counterstained with eosin or hematoxylin. Sections were dehydrated, clear with bioclear and mounted on eukitt. Photos of microscope fields were performed at 20× power magnification view using Nikon digital camera at focal distance of 12.9 mm. The number of intra-epidermal nerves on 3 microscope fields of […] (544×408 μm) each was counted by the experimenter on computer screen.
Global analysis of the data was performed using one factor or repeated measure analysis of variance (ANOVA) and one-way ANOVA. When ANOVA indicated significant difference, Fisher Protected Least Significant Difference was used as post-hoc test to compare experimental groups with the group of diabetic rats treated with the vehicle. The level of significance was set at p≦0.05. Results are expressed as mean ±standard error of the mean (s.e.m.).

[1] = SDF-1α 10, 30, 100 μg/kg, IL-6 10 μg/kg s.c.
[2] = SDF-1α especially 10 or 30 μg/kg, IL-6 10 μg/kg s.c.

| Substance | increase in the CMAP amplitude as compared to untreated mice (sciatic nerve crush mice) | number of degenerated fibers in the sciatic nerve (STZ-rats; [1]) | density of intra-epidermal nerve fibers (STZ-rats; [1]) | g-ratio (relative myelin thickness) vs STZ/Vehicle group (STZ-rats; [2]) | potency on CMAP latency compared with IL-6 (30 μg/kg) (sciatic nerve crush mice; 30 μg/kg s.c.) | CMAP latency vs vehicle treated mice (sciatic nerve crush mice; day 7, SDF-1α 30 μg/kg and 100 μg/kg, IL-6 30 μg/kg s.c.) | CMAP latency vs vehicle treated mice (sciatic nerve crush mice; dpl 15 and 22, 30 μg/kg and 100 μg/kg s.c.) | g-ratio (relative myelin thickness) vs STZ/Vehicle group (STZ-rats; 100 μg/kg s.c.) | number of degenerated fibers in the sciatic nerve (STZ-rats; lowest dose 10 μg/kg s.c. (best effect)) |
| --- | --- | --- | --- | --- | --- | --- | --- | --- | --- |
| IL-6: reference (positive) control compound in nerve crush and STZ models [reference compound] | about 1.5 times | significantly reduced population of degenerated fibers | markedly prevented | significant reduction | – | – | – | – | – |
| SDF-1α: Human recombinant chemokine SDF-1α (SEQ ID NO: 1), produced in house, expressed in E. Coli cells | about 1.5 times | reduction of degenerated fibers population | significantly greater density | significantly reduced | more potent than IL-6 | significantly reduced | significant effect | did not reach the significance level | reached the significance level |
